Data on 25 compounds can be found in patent US20230159510A1, “NOVEL PRMT5 INHIBITORS” (AMGEN INC., priority 2020, published 2023).

Usually Ki stands for a measure of affinity in units of concentration, obtained from inhibition or displacement. Broadly, the IC50 is the concentration that inhibits the measured activity by half.

One experiment deals with PRMT5/MEP50 (Homo sapiens, UniProt O14744). Description: MTase-Glo methyl transferase assay, Method A (Histone H4 peptide, 1 µM MTA, 24 h pre-incubation). The experiment is classed as biochemical. Also on record: made in house. The settings on record: read-out: PRMT5 MTase Glo Ki (nM, Meth. A). The essentials: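 Luminescent SAH detection (MTase-Glo) after a 2 h room-temperature methylation of 1 µM biotinylated H4 (1-21) peptide by 10 nM PRMT5/MEP50 with 5 µM SAM, in 50 mM Tris pH 8.0.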

Another experiment deals with HCT116 MTAP null cells. Description: HCT116 proliferation assay, MTAP null cells (CellTiter-Glo, 6 days). The experiment is classed as cell-based. The following applies: 144 h, read-out: Protif_ HCT116-MTAP null IC50. The essentials:
(§1)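 Compound titrations (top dose 1 or 10 µM, 1:3 dilution, 8 or 9 concentrations) and a DMSO control were applied to cells cultured overnight beforehand in RPMI 1640 with 10% FBS at 37° C, 5% CO2; viability was scored from luminescence.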
(In general: Cellular ATP, detected with luciferase, serves as a proxy for viable cell number.)

In another experiment the test system is HCT116 WT cells. Description: HCT116 proliferation assay, WT cells (CellTiter-Glo, 6 days). Format: cell-based. The settings on record: Homo sapiens, HCT-116, 144 h, read-out: Prolif_HCT116-WT IC50. The gist of the method:
as §1

Read-outs that look alike come from different tables or passages of the source. Bounds are passed on as bounds.

PRMT5/MEP50, sequence (O14744 whole entry): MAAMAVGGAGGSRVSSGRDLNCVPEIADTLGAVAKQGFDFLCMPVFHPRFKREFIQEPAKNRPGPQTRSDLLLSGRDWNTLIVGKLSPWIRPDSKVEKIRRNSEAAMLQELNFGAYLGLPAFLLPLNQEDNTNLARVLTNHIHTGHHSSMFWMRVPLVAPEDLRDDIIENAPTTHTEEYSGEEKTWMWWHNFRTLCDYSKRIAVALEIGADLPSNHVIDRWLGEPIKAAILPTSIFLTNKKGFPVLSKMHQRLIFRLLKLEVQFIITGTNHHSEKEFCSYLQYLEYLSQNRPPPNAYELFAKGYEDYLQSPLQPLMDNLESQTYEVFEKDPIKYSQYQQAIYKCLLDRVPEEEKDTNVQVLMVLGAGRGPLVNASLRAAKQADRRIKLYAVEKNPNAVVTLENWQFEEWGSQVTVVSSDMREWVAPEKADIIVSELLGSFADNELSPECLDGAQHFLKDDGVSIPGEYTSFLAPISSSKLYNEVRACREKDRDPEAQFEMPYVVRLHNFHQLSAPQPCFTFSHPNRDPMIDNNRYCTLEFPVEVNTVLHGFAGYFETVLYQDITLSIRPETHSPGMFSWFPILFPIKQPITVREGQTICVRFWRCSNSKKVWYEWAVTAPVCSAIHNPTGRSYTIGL
PRMT5/MEP50, sequence (Q9BQA1 whole entry partner): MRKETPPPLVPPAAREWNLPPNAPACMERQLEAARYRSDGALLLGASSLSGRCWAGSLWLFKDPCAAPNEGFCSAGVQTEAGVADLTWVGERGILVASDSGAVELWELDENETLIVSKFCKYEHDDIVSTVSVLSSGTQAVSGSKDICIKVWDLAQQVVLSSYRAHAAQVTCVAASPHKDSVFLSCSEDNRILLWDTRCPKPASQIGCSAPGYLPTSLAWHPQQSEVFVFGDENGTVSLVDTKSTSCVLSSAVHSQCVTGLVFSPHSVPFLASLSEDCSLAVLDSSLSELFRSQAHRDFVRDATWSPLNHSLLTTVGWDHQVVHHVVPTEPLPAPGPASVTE

Consider `CO[C@@H](CN(Cc1ccc(C(F)(F)F)cn1)C(=O)c1cnc2nc(N)c(Br)cc2c1)C(F)(F)F` (single isomer, unassigned) [Example 454], for which the Ki on PRMT5/MEP50 stood at 0.15 nM. Moreover, the IC50 in the experiment with HCT116 MTAP null cells (HCT116-MTAP null) was found to be 252 nM; in the experiment on HCT116 WT cells, 3940 nM.

In the case of `Cc1cc2cc(C(=O)N(Cc3ccc(C(F)(F)F)cn3)[C@H](C)C3CC3)ccc2nc1N` [Example 309, 2-amino-N-((1R)-1-cyclopropylethyl)-3-methyl-N-((5-(trifluoromethyl)-2-pyridinyl)methyl)-6-quinolinecarboxamide], on PRMT5/MEP50, the Ki was found to be 2.35 nM. Also, the IC50 worked out at 644 nM with HCT116 MTAP null cells (HCT116-MTAP null) and 7440 nM in the experiment on HCT116 WT cells.

On to `Cc1cc2cc(C(=O)N(Cc3ccc(Cl)cn3)Cc3ncccn3)ccc2nc1N` [Example 340, 2-amino-N-((5-chloro-2-pyridinyl)methyl)-3-methyl-N-(2-pyrimidinylmethyl)-6-quinolinecarboxamide], for which the Ki on PRMT5/MEP50 came to 1.39 nM. Moreover, the figures for the concentration for half-maximal inhibition (IC50) with HCT116 MTAP null cells (HCT116-MTAP null) and in the experiment with HCT116 WT cells were 505 nM and above 10000 nM, respectively.

Regarding `Cc1cc2cc(C(=O)N(Cc3ccc(C(F)(F)F)nn3)[C@@H]3CCOc4ccc(F)nc43)ccc2nc1N` [Example 515, (R)-2-amino-N-(6-fluoro-3,4-dihydro-2H-pyrano[3,2-b]pyridin-4-yl)-3-methyl-N-((6-(trifluoromethyl)pyridazin-3-yl)methyl)quinoline-6-carboxamide], the Ki on PRMT5/MEP50 was determined as 0.02 nM. The IC50 in the experiment with HCT116 MTAP null cells (HCT116-MTAP null) came to 23 nM; with HCT116 WT cells, 480 nM.

As for `Cc1cc2cc(C(=O)N(Cc3ccc(C(F)(F)F)cn3)[C@@H]3CCOc4cccnc43)ccc2nc1N` (single isomer, unassigned) [Example 456], the Ki on PRMT5/MEP50 amounted to 0.3 nM. Further, the IC50 in the experiment with HCT116 MTAP null cells (HCT116-MTAP null) amounted to 39 nM; with HCT116 WT cells, 816 nM.

As to `Cc1nc(CN(C(=O)c2cnc3nc(N)c(Br)cc3c2)[C@H](C)c2ncccn2)ccc1Br` (single isomer, unassigned) [Example 470], the Ki on PRMT5/MEP50 amounted to 0.09 nM. Further, the IC50 is 93 nM with HCT116 MTAP null cells (HCT116-MTAP null) and 2210 nM in the experiment on HCT116 WT cells.

With `Cc1cc2cc(C(=O)N(Cc3ccc(C(F)(F)F)nn3)[C@@H]3CCC[C@H]3O)ccc2nc1N` [Example 363, 2-amino-N-((1R,2R)-2-hydroxycyclopentyl)-3-methyl-N-((6-(trifluoromethyl)pyridazin-3-yl)methyl)quinoline-6-carboxamide], the Ki at PRMT5/MEP50 is 0.2 nM. Besides, the IC50 in the experiment with HCT116 MTAP null cells (HCT116-MTAP null) was 326 nM; with HCT116 WT cells, 7160 nM.

Take `C[C@H](c1ncccn1)N(Cc1ccc(C(F)F)cn1)C(=O)c1cnc2nc(N)c(Br)cc2c1` [Example 407, 7-amino-6-bromo-N-((5-(difluoromethyl)-2-pyridinyl)methyl)-N-((1R)-1-(2-pyrimidinyl)ethyl)-1,8-naphthyridine-3-carboxamide]: the Ki at PRMT5/MEP50 was found to be 0.11 nM. In addition, the results for the IC50 in the experiment on HCT116 MTAP null cells (HCT116-MTAP null) and with HCT116 WT cells were 291 nM and above 10000 nM, respectively.

`Cc1cc2cc(C(=O)N(Cc3ccc(C(F)F)cn3)[C@H](C)c3ncccn3)cnc2nc1N` [Example 409, 7-amino-N-((5-(difluoromethyl)-2-pyridinyl)methyl)-6-methyl-N-((1R)-1-(2-pyrimidinyl)ethyl)-1,8-naphthyridine-3-carboxamide]: the Ki on PRMT5/MEP50 was 0.24 nM. The IC50 with HCT116 MTAP null cells (HCT116-MTAP null) was 692 nM; in the experiment on HCT116 WT cells, above 10000 nM.

`Cc1cc2cc(C(=O)N(Cc3ccc(C(F)(F)F)cn3)[C@H](C)c3ccc(F)cc3)ccc2nc1N` [Example 360, 2-amino-N-((1R)-1-(4-fluorophenyl)ethyl)-3-methyl-N-((5-(trifluoromethyl)-2-pyridinyl)methyl)-6-quinolinecarboxamide]: the Ki at PRMT5/MEP50 was 0.08 nM. The IC50 worked out at 199 nM with HCT116 MTAP null cells (HCT116-MTAP null) and 4810 nM in the experiment on HCT116 WT cells.

In the case of `Cc1cc2cc(C(=O)N(Cc3ccc(C#N)cn3)[C@H](C)c3ccccc3F)ccc2nc1N` [Example 405, 2-amino-N-((5-cyano-2-pyridinyl)methyl)-N-((1R)-1-(2-fluorophenyl)ethyl)-3-methyl-6-quinolinecarboxamide], at PRMT5/MEP50, the Ki was found to be 0.03 nM. The IC50 with HCT116 MTAP null cells (HCT116-MTAP null) turned out to be 54 nM; in the experiment with HCT116 WT cells, 1040 nM.

As to `Cc1cc2cc(C(=O)N(Cc3ccc(C(F)(F)F)cn3)C[C@H](C)C(F)(F)F)ccc2nc1N` [Example 458, 2-amino-3-methyl-N-((2S)-3,3,3-trifluoro-2-methylpropyl)-N-((5-(trifluoromethyl)-2-pyridinyl)methyl)-6-quinolinecarboxamide], the Ki on PRMT5/MEP50 stood at 0.84 nM. Further, the figures for the IC50 in the experiment with HCT116 MTAP null cells and in the experiment with HCT116 WT cells were 590 nM and above 10000 nM, respectively.

`Cc1cc2cc(C(=O)N(Cc3ncc(C(F)(F)F)s3)[C@H](C)c3ncccn3)ccc2nc1N` (single isomer, unassigned) [Example 492]: the Ki on PRMT5/MEP50 amounted to 0.22 nM. For the same compound, the IC50 with HCT116 MTAP null cells (HCT116-MTAP null) was 175 nM; in the experiment on HCT116 WT cells, 3390 nM.

In the case of `Cc1cc2cc(C(=O)N(Cc3ccc(C(F)(F)F)cn3)C3(c4ncccn4)CC3)ccc2nc1N` [Example 430, 2-amino-3-methyl-N-(1-(2-pyrimidinyl)cyclopropyl)-N-((5-(trifluoromethyl)-2-pyridinyl)methyl)-6-quinolinecarboxamide], the Ki on PRMT5/MEP50 was found to be 0.42 nM. Further, the IC50 in the experiment with HCT116 MTAP null cells (HCT116-MTAP null) is 506 nM; in the experiment on HCT116 WT cells, above 10000 nM.

Turning to `Cc1cc2cc(C(=O)N(Cc3ccc(C4=CCN(C(=O)OC(C)(C)C)CC4)cn3)[C@H](C)c3ncccn3)ccc2nc1N` [Example 547, tert-butyl (R)-6-((2-amino-3-methyl-N-(1-(pyrimidin-2-yl)ethyl)quinoline-6-carboxamido)methyl)-3’,6′-dihydro-[3,4′-bipyridine]-1′(2’H)-carboxylate], at PRMT5/MEP50, the inhibition constant (Ki) was 0.02 nM. Besides, the IC50 in the experiment on HCT116 MTAP null cells (HCT116-MTAP null) was found to be 19 nM; with HCT116 WT cells it was 443 nM.

Consider `Cc1cc2cc(C(=O)N(Cc3ccc(Br)cn3)[C@H](C)c3ncccc3F)ccc2nc1N` [Example 400, 2-amino-N-((5-bromo-2-pyridinyl)methyl)-N-((1R)-1-(3-fluoro-2-pyridinyl)ethyl)-3-methyl-6-quinolinecarboxamide], for which, at PRMT5/MEP50, the Ki worked out at 0.05 nM. For the same compound, the IC50 in the experiment with HCT116 MTAP null cells (HCT116-MTAP null) is 41 nM; in the experiment on HCT116 WT cells it was 960 nM.

Turning to `Cc1cc2cc(C(=O)N(Cc3ccc(C(F)(F)F)cn3)[C@@H]3CCCc4ccncc43)ccc2nc1N` [Example 323, 2-amino-3-methyl-N-((8R)-5,6,7,8-tetrahydro-8-isoquinolinyl)-N-((5-(trifluoromethyl)-2-pyridinyl)methyl)-6-quinolinecarboxamide], at PRMT5/MEP50, the Ki is 0.36 nM. Also, the IC50 in the experiment with HCT116 MTAP null cells (HCT116-MTAP null) was determined as 159 nM; in the experiment with HCT116 WT cells, 5010 nM.

Consider `Cc1cc2cc(C(=O)N(Cc3ccc(C(F)(F)F)cn3)[C@@H]3CCOc4ncccc43)ccc2nc1N` (single isomer, unassigned) [Example 459], for which the Ki on PRMT5/MEP50 came to 0.25 nM. Also, the IC50 was 78 nM with HCT116 MTAP null cells (HCT116-MTAP null) and 2340 nM in the experiment with HCT116 WT cells.

In the case of `CC[C@H](c1ncccn1)N(Cc1cnc(C(F)(F)F)cn1)C(=O)c1ccc2nc(N)c(C)cc2c1` (single isomer, unassigned) [Example 516], the Ki at PRMT5/MEP50 was found to be 0.14 nM. Also, the IC50 with HCT116 MTAP null cells (HCT116-MTAP null) was 155 nM; with HCT116 WT cells it was 3640 nM.

For the compound `C[C@H](c1ncccc1F)N(Cc1ccc(C#N)cn1)C(=O)c1ccc2nc(N)c(Br)cc2c1` [Example 352, 2-amino-3-bromo-N-((5-cyano-2-pyridinyl)methyl)-N-((1R)-1-(3-fluoro-2-pyridinyl)ethyl)-6-quinolinecarboxamide], the Ki at PRMT5/MEP50 came to 0.14 nM. Moreover, the IC50 in the experiment with HCT116 MTAP null cells (HCT116-MTAP null) came out at 200 nM; with HCT116 WT cells, 8090 nM.

Turning to `COc1ccc(CN(C(=O)c2cc3cc(C)c(N)nc3cc2F)[C@@H](C)c2ncccn2)nn1` (single isomer, unassigned) [Example 480], the Ki on PRMT5/MEP50 came to 1.49 nM. Also, the IC50 in the experiment with HCT116 MTAP null cells (HCT116-MTAP null) came out at 369 nM; in the experiment on HCT116 WT cells, 1460 nM.

`Cc1cc2cc(C(=O)N(Cc3ccc(C(F)(F)F)cn3)CC3CC3)c(F)cc2nc1N` [Example 311, 2-amino-N-(cyclopropylmethyl)-7-fluoro-3-methyl-N-((5-(trifluoromethyl)-2-pyridinyl)methyl)-6-quinolinecarboxamide]: on PRMT5/MEP50, the Ki was found to be 0.21 nM. For the same compound, the IC50 in the experiment with HCT116 MTAP null cells (HCT116-MTAP null) was 163 nM; in the experiment on HCT116 WT cells it was 2840 nM.

For `Cc1cc2cc(C(=O)N(Cc3ccc(C4=CCOCC4)nn3)[C@H](C)c3ncccn3)ccc2nc1N` [Example 333, 2-amino-N-((6-(3,6-dihydro-2H-pyran-4-yl)-3-pyridazinyl)methyl)-3-methyl-N-((1R)-1-(2-pyrimidinyl)ethyl)-6-quinolinecarboxamide], the Ki on PRMT5/MEP50 was determined as 0.002 nM. In addition, the IC50 in the experiment on HCT116 MTAP null cells (HCT116-MTAP null) was found to be 27 nM; in the experiment on HCT116 WT cells, 720 nM.

Regarding `Cc1cc2cc(C(=O)N(Cc3ccc(C(F)(F)F)cn3)[C@@H]3CCC[C@H]3O)ccc2nc1N` [Example 362, 2-amino-N-((1R,2R)-2-hydroxycyclopentyl)-3-methyl-N-((5-(trifluoromethyl)-2-pyridinyl)methyl)-6-quinolinecarboxamide], the Ki at PRMT5/MEP50 turned out to be 0.11 nM. Further, the IC50 in the experiment with HCT116 MTAP null cells (HCT116-MTAP null) was 106 nM; with HCT116 WT cells it was 2460 nM.

As to `CCOc1ccc(CN(C(=O)c2ccc3nc(N)c(C)cc3c2)[C@H](C)c2ncccn2)nc1` [Example 375, 2-amino-N-((5-ethoxy-2-pyridinyl)methyl)-3-methyl-N-((1R)-1-(2-pyrimidinyl)ethyl)-6-quinolinecarboxamide], at PRMT5/MEP50, the Ki turned out to be 0.87 nM. For the same compound, the values for the IC50 in the experiment with HCT116 MTAP null cells (HCT116-MTAP null) and with HCT116 WT cells were 64 nM and 2130 nM, respectively.
